According to US4732983A, “Pyschotropic polycyclic imides” (American Home Products Corporation, priority 1987, dated 1988):
Read-outs that look alike come from different tables or passages of the source.

Columns and labels:
[1] = test system: male CD rats (Charles River); experiment: Conditioned avoidance, shelf-jump response; format: in vivo, rat; conditions: 40 mg/kg i.p., single dose
Experimental: The rat can avoid the electric shock by jumping to an exposed shelf (shelf-jump response). A response during the initial warning tone is considered an avoidance response, while a response during shock delivery is considered as escape response. […] The compounds of this invention were tested at a single dose (40 mg./kg. i.p.) in this procedure and were rated relative to their inhibition of conditioned avoidance responding.

[2] = test system: rats; experiment: Conditioned avoidance, discrete trial (lever press substituted for shelf-jump), Avoidance Block; format: in vivo, rat; conditions: for Conditioned Avoidance Discrete Trial AB50 (Avoidance Block): p.o.; for ED50: Rattus norvegicus, po, read-out: Conditioned Avoidance Discrete Trial AB50 (Avoidance Block)
[3] = test system: CF-1 mice (Charles River); experiment: Antagonism of apomorphine-induced stereotyped behavior and climbing; format: in vivo, mouse; conditions: for Apomorphine Antagonism ED50, climbing / Apomorphine Antagonism ED50, stereotypy: p.o.; for Apomorphine Antagonism ED50, climbing / Apomorphine Antagonism ED50, stereotypy / ED50: apomorphine 1 mg/kg s.c.; for ED50: Mus musculus, po; for ratio of the ED50 for stereotyped behavior to the ED50 for climbing: apomorphine-induced, standard antipsychotic drugs
Experimental: Readings are repeated every five minutes during a thirty minute test session. […] The ratio of the ED50 for stereotyped behavior to the ED50 for climbing is calculated.

[4] = biological target: T1, D-2 dopamine receptor (Rattus norvegicus, UniProt P61169); experiment: [3H]spiroperidol binding inhibition, homogenized limbic brain tissue
T1 construct: homogenized limbic brain tissue is incubated with; from tissue; host or cells: homogenized limbic brain tissue

[5] = biological target: T2, 5-HT1A serotonin receptor (Rattus norvegicus, UniProt P19327); experiment: Inhibition of [3H]8-OH DPAT binding
T2 construct: 44: 1685-1696, 1985; from tissue
T2 sequence (P19327 1-422): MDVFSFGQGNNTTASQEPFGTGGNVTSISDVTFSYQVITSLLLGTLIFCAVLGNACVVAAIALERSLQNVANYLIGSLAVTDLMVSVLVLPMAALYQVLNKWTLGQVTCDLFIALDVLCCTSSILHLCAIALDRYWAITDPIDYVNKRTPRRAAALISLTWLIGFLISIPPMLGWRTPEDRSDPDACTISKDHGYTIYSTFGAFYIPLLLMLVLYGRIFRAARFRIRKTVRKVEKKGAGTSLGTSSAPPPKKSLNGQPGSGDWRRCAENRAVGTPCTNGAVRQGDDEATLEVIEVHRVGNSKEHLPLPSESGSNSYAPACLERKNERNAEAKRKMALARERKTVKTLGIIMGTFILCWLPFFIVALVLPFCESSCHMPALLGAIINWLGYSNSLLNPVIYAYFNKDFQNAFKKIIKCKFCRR

[6] = read-out: Apomorphine Antagonism ED50, climbing

T1 sequence (P61169 whole entry): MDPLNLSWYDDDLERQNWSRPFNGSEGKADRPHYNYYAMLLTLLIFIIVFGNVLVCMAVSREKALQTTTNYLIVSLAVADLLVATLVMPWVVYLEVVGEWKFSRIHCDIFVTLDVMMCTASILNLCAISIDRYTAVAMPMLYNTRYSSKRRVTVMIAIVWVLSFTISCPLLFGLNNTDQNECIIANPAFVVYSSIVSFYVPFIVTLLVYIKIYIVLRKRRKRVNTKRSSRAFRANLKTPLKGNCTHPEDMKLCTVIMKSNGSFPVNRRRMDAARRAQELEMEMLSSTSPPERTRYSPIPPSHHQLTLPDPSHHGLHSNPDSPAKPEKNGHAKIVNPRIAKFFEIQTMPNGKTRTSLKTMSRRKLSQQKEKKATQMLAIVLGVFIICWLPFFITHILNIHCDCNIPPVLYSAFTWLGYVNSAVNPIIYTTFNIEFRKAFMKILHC

Row | Molecule | Conditioned Avoidance Shelf-Jump (inhibition of conditioned avoidance responding) [1] | Conditioned Avoidance Discrete Trial AB50 (Avoidance Block) [2] | Apomorphine Antagonism ED50, climbing [3] | Apomorphine Antagonism ED50, stereotypy [3] | inhibition at 1 µM [4] | Ki [5] | also measured
1 | Exo-2-[4-[4-(6-chloro-2-pyrazinyl)-1-piperazinyl]butyl]octahydro-4,57-metheno-1H-pentaleno[1,2-c]pyrrole-1,3-(2H)-dione [Example 4] | > 20% | 56.16 mg/kg | inactive | inactive |  |  | [3H] Spiroperidol Binding Inhibition, % at 1 μM [4]: 54%; Inhibition of [3H] 8-OH DPAT Binding, % at 1 μM ([5]; 1 μM): 76%
2 | O=C1C2C3CC4C2C4C3C(=O)N1CCCCN1CCN(c2cncc(Cl)n2)CC1 [Example 6, 2-[4-[4-(6-Chloro-2-pyrazinyl)-1-piperazinyl]butyl]hexahydro-4,6,7-metheno-1H-2-pyridine-1,3-(2H)-dione] | ~ 80% | active |  |  | 29% | 51 nM | ED50 [3, 6]: 1.74 mg/kg; ED50 ([3]; read-out: Apomorphine Antagonism ED50, stereotypy): 40.5 mg/kg
3 | O=C(CCCN1CCC(O)(c2ccc(Cl)cc2)CC1)c1ccc(F)cc1 [haloperidol, reference compound] |  |  |  |  |  |  | ratio of the ED50 for stereotyped behavior to the ED50 for climbing [3]: 1.00
4 | O=C1C2C(C(=O)N1CCCCN1CCN(c3ncccn3)CC1)C1C3CC4C(C32)C41 (stereo not drawn) [Example 2, Exo-2-[4-[4-(2-pyrimidinyl)-1-piperazinyl]butyl]octahydro-4,5,7-metheno-1H-pentaleno[1,2-c]pyrrole-1,3(2H)-dione] | > 20% | active | 15.61 mg/kg | inactive |  | 40 nM | [3H] Spiroperidol Binding Inhibition, % at 1 μM ([4]; 1 µM): 0%
5 | CSc1ccc2c(c1)N(CCC1CCCCN1C)c1ccccc1S2 (stereo not shown) [thioridazine, reference compound] |  |  |  |  |  |  | ratio of the ED50 for stereotyped behavior to the ED50 for climbing [3]: 1.83
6 | O=C1C2C(C(=O)N1CCCCN1CCN(c3ncccn3)CC1)C1C3CC4C(C32)C41 (stereo not drawn) [Example 1, Endo-2-[4-[4-(2-pyrimidinyl)-1-piperazinyl]butyl]octahydro-4,5,7-metheno-1H-pentaleno[1,2-c]pyrrole-1,3(2H)-dione] | ~ 80% |  |  | inactive |  | 12.8 nM | ED50 [2]: 55.7 mg/kg; ED50 [3, 6]: 17 mg/kg; [3H] Spiroperidol Binding Inhibition, % at 1 μM ([4]; 1 µM): 76%
7 | O=C1CC2(CCCC2)CC(=O)N1CCCCN1CCN(c2ncccn2)CC1 [buspirone, reference compound] |  |  |  |  |  |  | affinity for 5-HT1A serotonin receptor (in words) ([5]; displacement of [3H]8-OH DPAT): potent affinity
8 | CN(C)CCCN1c2ccccc2Sc2ccc(Cl)cc21 [chlorpromazine, reference compound] |  |  |  |  |  |  | ratio of the ED50 for stereotyped behavior to the ED50 for climbing [3]: 1.51
9 | O=C1C2C3CC4C2C4C3C(=O)N1CCCCN1CCN(c2ncccn2)CC1 [Example 7, 2-[4-[4-(2-Pyrimidinyl)-1-piperazinyl]butyl]hexahydro-4,6,7-metheno-1H-2-pyridine-1,3-(2H)-dione] | ~ 80% | weak | inactive | inactive | 51% | 16 nM | 
10 | O=C1C2C(C(=O)N1CCCCN1CCN(c3cnccn3)CC1)C1C3CC4C(C32)C41 (stereo not drawn) [Example 5, Endo-2-[4-[4-(2-pyrazinyl)-1-piperazinyl]butyl]octahydro-4,5,7-metheno-1H-pentaleno[1,2-c]pyrrole-1,3-(2H)-dione] | ~ 80% | inactive | inactive | inactive | 25% | 94 nM | 
11 | O=C1C2C(C(=O)N1CCCCN1CCN(c3cncc(Cl)n3)CC1)C1C3CC4C(C32)C41 (stereo not drawn) [Example 3, Endo-2-[4-[4-(6-chloro-2-pyrazinyl)-1-piperazinyl]butyl]octahydro-4,5,7-metheno-1H-pentaleno[1,2-c]pyrrole-1,3-(2H)-dione] | > 20% |  |  | inactive | 44% | 41.9 nM | ED50 [2]: 46.8 mg/kg; ED50 [3, 6]: 19 mg/kg
